Consider 1 compound from patent publication US20070123556A1, “Treatment with Sigma Receptor Agonists Post-Stroke” (UNIVERSITY OF SOUTH FLORIDA, priority 2005, published 2007).

Like-named read-outs stand apart in the source and are kept apart here.

For series [1], the system named is cultured cortical neurons. Kind of series: spontaneous Ca2+ transients, fura-2 [Ca2+]i. The class given is cell-based, rat. Conditions: 100 μM.
The subject of the next series is ASIC channels. Kind of series: low-pH (pH 6.0) evoked ASIC-mediated increases in [Ca2+]i. The class given is cell-based, rat. Conditions: 100 μM, pH 6.0.
Series [2] deals with rats subjected to MCAO. Kind of series: Fluoro-Jade infarct area after MCAO. The class given is in vivo, rat.
Series [3] concerns rats subjected to MCAO. Put plainly: NeuN immunostaining, viable neurons after MCAO. The settings on record: 15 mg/kg. It is filed as in vivo, rat. Here is the method:
MCAO surgery was performed as previously reported by Vendrame et al (Vendrame et al., 2004) and originally described by Longa et al (Longa et al., 1989). Laser Doppler Radar (LDR) was used to monitor decrease in blood perfusion which indicates successful occlusion (Moor Instruments Ltd, Devon, England). A 2 mm diameter hole was drilled into the right parietal bone (1 mm posterior and 4 mm lateral from bregma), and a guide screw was set. The LDR probe (MP10M200ST; Moor) was inserted into the guide screw, and the tip of the probe was placed against the pial surface of the brain. […] For MCAO, the embolus (4 cm long, 6 lb test monofilament) was advanced up the internal carotid artery into the middle cerebral artery and tied off at the internal/external carotid junction to produce permanent occlusion. The rat was then sutured, given a 1 ml subcutaneous injection of saline, and allowed to wake in a fresh cage. […]
[…]. […] The area of the contralateral side of the brain tissue was measured and used to compensate for possible edema in ipsilateral hemispheres. NeuN immunostaining was analyzed using the NIH Image J software to count NeuN positive cells by particle analysis in the ipsilateral hemispheres of the corticalustriatal and corticaluhippocampal regions of the rat brains at a magnification of 10×.

Series [4] deals with rats subjected to MCAO.
Another series relates to glutamate receptors. Conditions: 100 μM; cited from earlier work.
A further series deals with cultured microglia. Conditions: response to LPS; cited from earlier work.

`Cc1ccccc1NC(=N)Nc1ccccc1C` [DTG, 1,3-di-o-tolyguanidine]: the “effect on spontaneous increases in [Ca2+]i (number of events)” value in series [1] is given as “reversibly block”. Further, the “effect on low-pH evoked transient increases in [Ca2+]i” value in the series with ASIC channels was “inhibits”. Further, the “decrease of Fluoro-Jade staining relative to untreated MCAO animals” value in the series on rats subjected to MCAO [2] (15 mg/kg, 24 hr post stroke) is on record as above 85%. For the same compound, the “infarct area (Fluoro-Jade labeled)” value came to 2±2% with rats subjected to MCAO [2] (cortical/hippocampal region, 15 mg/kg DTG from 24 h post-MCAO (MCAO-only 29±3%)) and 6±4% in the series on rats subjected to MCAO [2] (cortical/striatal region, 15 mg/kg DTG from 24 h post-MCAO (MCAO-only 44±5%)). Moreover, the “increase of surviving NeuN cells in the infarct zone relative to MCAO-only animals” value in the series on rats subjected to MCAO [3] (24 hr post stroke) was above 83%. The “number of viable neurons (NeuN) in ipsilateral infarct zones” value in the series on rats subjected to MCAO [3] (cortical/striatal and cortical/hippocampal, p<0.001) is on record as “significantly increased”. In addition, the “survival rate 96 hours post MCAO” value is recorded as “over 70%” in the series with rats subjected to MCAO [4] (15 mg/kg daily s.c. at 24, 48, 72 h post MCAO) and “under 40%” with rats subjected to MCAO [4] (30 mg/kg daily s.c. at 24, 48, 72 h post MCAO). In addition, the “deaths in sham animals following DTG application” value in the series on rats subjected to MCAO [4] (sham control, 15 mg/kg DTG) is reported as “none”. In addition, the “inhibition of calcium elevations evoked by glutamate application” value in the series on glutamate receptors was “not”. Further, the “production of TNF-α” value in the series with cultured microglia is on record as “inhibits”. Moreover, the “production of nitric oxide” value with cultured microglia is “inhibits”.
